Data as given in patent publication US20230295131A1, “INHIBITORS OF RHO-ASSOCIATED COILED-COIL KINASE” (Angion Biomedica Corp., priority 2020, published 2023).
Where a name gives a salt, the structure may show the parent alone. Read-outs that look alike come from different tables or passages of the source.

Assays:
[1] = target: T1, ROCK1 (Homo sapiens, UniProt Q13464); experiment: ROCK1 kinase binding affinity, DiscoverX KINOMEscan KdELECT; details: 11-point 3-fold dilution
T1 construct: T7 phage fusion (kinase-tagged phage) or DNA tag for qPCR detection
Procedure: (§1) 1. ROCK1 and ROCK2 kinase assays: The ROCK1 and ROCK2 kinase binding affinities of compounds in this disclosure were determined by DiscoverX's KINOMEscan™ KdELECT technology (https://www.discoverx.com/kinomescan-elect-kinase-screening-and-profiling-services): Kinase-tagged T7 phage strains were prepared in an E. coli host derived from the BL21 strain. E. coli were grown to log-phase and infected with T7 phage and incubated with shaking at 32° C. until lysis. The lysates were centrifuged and filtered to remove cell debris. The remaining kinases were produced in HEK-293 cells and subsequently tagged with DNA for qPCR detection. […] The liganded beads were blocked with excess biotin and washed with blocking buffer (SeaBlock (Pierce), 1% BSA, 0.05% Tween 20, 1 mM DTT) to remove unbound ligand and to reduce nonspecific binding. […] Kds were determined using an 11-point 3-fold compound dilution series with three DMSO control points. […] The compounds were then diluted directly into the assays such that the final concentration of DMSO was 0.9%. All reactions performed in polypropylene 384-well plate. Each was a final volume of 0.02 ml. […] The kinase concentration in the eluates was measured by qPCR.

[2] = target: T2, ROCK2 (Homo sapiens, UniProt O75116); experiment: ROCK2 kinase binding affinity, DiscoverX KINOMEscan KdELECT; details: for ROCK2 Selectivity: selectivity for ROCK2 over ROCK1 from Kd
T2 construct: T7 phage fusion (kinase-tagged phage) or DNA tag for qPCR detection
Procedure: as §1

[3] = KINOMEscan KdELECT, 11-point 3-fold dilution, read-out: Kd (μM) ROCK2

T2 sequence (O75116 whole entry, the tested form may be a part): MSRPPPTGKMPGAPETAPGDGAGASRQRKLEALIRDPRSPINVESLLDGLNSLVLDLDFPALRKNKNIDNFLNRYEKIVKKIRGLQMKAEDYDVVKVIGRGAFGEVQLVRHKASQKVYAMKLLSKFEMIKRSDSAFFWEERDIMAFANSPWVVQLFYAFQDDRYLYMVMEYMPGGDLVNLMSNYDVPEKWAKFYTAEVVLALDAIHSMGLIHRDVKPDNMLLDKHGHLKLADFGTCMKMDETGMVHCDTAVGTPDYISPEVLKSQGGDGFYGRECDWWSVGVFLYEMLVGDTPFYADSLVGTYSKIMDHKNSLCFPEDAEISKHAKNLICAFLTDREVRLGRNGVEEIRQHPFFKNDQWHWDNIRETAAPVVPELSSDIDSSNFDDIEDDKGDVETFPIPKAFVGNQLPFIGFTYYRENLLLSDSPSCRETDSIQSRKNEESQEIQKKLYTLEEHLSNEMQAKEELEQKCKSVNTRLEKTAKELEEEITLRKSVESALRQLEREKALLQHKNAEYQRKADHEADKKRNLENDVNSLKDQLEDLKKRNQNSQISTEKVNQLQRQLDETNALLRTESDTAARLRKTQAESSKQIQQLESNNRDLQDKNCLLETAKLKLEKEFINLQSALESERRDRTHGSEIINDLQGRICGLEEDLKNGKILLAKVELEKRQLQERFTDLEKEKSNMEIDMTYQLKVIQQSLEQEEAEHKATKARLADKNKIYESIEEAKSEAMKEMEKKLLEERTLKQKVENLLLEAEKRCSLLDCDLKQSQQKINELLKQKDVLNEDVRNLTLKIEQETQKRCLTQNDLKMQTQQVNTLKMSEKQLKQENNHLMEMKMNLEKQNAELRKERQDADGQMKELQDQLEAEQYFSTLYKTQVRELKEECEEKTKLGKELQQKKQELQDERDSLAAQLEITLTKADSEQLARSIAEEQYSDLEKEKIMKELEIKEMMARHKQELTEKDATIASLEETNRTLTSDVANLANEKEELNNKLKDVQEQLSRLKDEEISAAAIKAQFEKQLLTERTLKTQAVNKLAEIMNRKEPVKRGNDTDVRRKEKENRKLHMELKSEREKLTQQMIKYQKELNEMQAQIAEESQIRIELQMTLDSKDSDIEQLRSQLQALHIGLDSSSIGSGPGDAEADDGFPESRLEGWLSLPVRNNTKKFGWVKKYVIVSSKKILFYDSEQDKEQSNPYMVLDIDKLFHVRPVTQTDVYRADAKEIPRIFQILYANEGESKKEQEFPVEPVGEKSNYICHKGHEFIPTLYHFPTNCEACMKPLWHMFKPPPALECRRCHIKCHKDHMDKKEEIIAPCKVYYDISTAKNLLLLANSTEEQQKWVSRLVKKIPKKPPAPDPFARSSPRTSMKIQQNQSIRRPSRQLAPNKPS
T1 sequence (Q13464 whole entry, the tested form may be a part): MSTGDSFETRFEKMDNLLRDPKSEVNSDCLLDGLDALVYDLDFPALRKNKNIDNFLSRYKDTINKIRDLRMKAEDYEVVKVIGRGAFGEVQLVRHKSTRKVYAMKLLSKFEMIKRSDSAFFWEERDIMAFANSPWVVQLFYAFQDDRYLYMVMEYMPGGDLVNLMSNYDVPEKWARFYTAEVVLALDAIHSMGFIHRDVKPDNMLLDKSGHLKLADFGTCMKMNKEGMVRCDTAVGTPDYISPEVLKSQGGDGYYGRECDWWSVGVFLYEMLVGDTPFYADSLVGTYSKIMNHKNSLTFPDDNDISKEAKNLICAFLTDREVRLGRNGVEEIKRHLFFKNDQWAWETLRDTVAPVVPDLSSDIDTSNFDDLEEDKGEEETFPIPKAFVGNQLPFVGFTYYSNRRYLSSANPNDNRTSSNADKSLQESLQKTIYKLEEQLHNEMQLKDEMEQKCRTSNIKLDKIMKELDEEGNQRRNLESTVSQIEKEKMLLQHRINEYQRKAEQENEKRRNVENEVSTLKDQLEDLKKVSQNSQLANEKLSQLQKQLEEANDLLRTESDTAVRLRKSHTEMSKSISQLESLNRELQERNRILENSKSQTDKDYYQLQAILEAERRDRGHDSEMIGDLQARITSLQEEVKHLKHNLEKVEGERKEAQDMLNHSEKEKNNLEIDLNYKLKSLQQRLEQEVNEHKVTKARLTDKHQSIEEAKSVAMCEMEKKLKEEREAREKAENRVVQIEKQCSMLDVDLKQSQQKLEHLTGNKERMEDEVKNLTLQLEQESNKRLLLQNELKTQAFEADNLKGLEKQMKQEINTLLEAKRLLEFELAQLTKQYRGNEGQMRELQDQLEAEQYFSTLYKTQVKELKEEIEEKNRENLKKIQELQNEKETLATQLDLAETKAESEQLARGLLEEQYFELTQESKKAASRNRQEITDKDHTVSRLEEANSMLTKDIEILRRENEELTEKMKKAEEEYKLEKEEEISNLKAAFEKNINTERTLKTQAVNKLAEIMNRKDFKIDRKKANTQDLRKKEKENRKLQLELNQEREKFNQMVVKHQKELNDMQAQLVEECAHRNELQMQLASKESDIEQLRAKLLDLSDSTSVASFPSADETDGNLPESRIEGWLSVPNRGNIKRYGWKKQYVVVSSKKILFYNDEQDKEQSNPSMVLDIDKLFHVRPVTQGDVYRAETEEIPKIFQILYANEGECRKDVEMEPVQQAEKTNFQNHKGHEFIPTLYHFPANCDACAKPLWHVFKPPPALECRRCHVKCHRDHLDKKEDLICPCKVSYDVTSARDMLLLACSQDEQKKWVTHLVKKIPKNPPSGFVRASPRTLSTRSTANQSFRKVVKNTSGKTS

| Compound | Kd [1] [µM] | Kd [2, 3] [µM] | ROCK2 Selectivity [2] | Kd [2] [µM] |
| --- | --- | --- | --- | --- |
| Fc1ncccc1CNc1nccc(-c2nccc(C#Cc3ccc4[nH]ncc4c3)n2)n1 [Ex. 6, 4-((1H-Indazol-5-yl)ethynyl)-N-((2-fluoropyridin-3-yl)methyl)-[2,4′-bipyrimidin]-2′-amine] | 0.01 to 0.099 | < 0.01 | * (<50-fold selectivity for ROCK2) | – |
| O[C@@H]1CC[C@@H](Nc2nccc(-c3nccc(C#Cc4ccc5[nH]ncc5c4)n3)n2)C1 [Ex. 78, (1R,3R)-3-((4-((1H-Indazol-5-yl)ethynyl)-[2,4′-bipyrimidin]-2′-yl)amino)cyclopentanol] | 1 to 9.9 | < 0.01 | *** (151 to 500-fold selectivity for ROCK2) | – |
| O=C(O)[C@H]1CC[C@@H](Nc2nccc(-c3nccc(C#Cc4ccc5[nH]ncc5c4)n3)n2)CC1 [Ex. 92, (1s,4s)-4-((4-((1H-Indazol-5-yl)ethynyl)-[2,4′-bipyrimidin]-2′-yl)amino)cyclohexanecarboxylic acid] | 0.1 to 0.99 | 0.01 to 0.099 | * (<50-fold selectivity for ROCK2) | – |
| C(#Cc1ccnc(-c2ccnc(NCc3ccc4c(c3)CNC4)n2)n1)c1ccc2[nH]ncc2c1 [Ex. 20, 4-((1H-Indazol-5-yl)ethynyl)-N-(isoindolin-5-ylmethyl)-[2,4′-bipyrimidin]-2′-amine trifluoroacetate salt] | 0.1 to 0.99 | 0.01 to 0.099 | * (<50-fold selectivity for ROCK2) | – |
| C(#Cc1ccnc(-c2ccnc(NCC3CCCCO3)n2)n1)c1ccc2[nH]ncc2c1 (stereo not drawn) [Ex. 76, 4-((1H-Indazol-5-yl)ethynyl)-N-((tetrahydro-2H-pyran-2-yl)methyl)-[2,4′-bipyrimidin]-2′-amine] | 1 to 9.9 | < 0.01 | *** (151 to 500-fold selectivity for ROCK2) | – |
| C(#Cc1ccnc(-c2ccnc(NC[C@H]3CCCO3)n2)n1)c1ccc2[nH]ncc2c1 [Ex. 34, (R)-4-((1H-Indazol-5-yl)ethynyl)-N-((tetrahydrofuran-2-yl)methyl)-[2,4′-bipyrimidin]-2′-amine] | 0.1 to 0.99 | < 0.01 | *** (151 to 500-fold selectivity for ROCK2) | – |
| CN(C)C(=O)CNc1nccc(-c2nccc(C#Cc3ccc4[nH]ncc4c3)n2)n1 [Ex. 19, 2-((4-((1H-Indazol-5-yl)ethynyl)-[2,4′-bipyrimidin]-2′-yl)amino)-N,N-dimethylacetamide] | 0.1 to 0.99 | 0.01 to 0.099 | ** (50 to 150-fold selectivity for ROCK2) | – |
| Fc1n[nH]c2ccc(C#Cc3ccnc(-c4ccnc(NCC5CCCO5)n4)n3)cc12 (stereo not drawn) [Ex. 50, 4-((3-Fluoro-1H-indazol-5-yl)ethynyl)-N-((tetrahydrofuran-2-yl)methyl)-[2,4′-bipyrimidin]-2′-amine] | 1 to 9.9 | < 0.01 | *** (151 to 500-fold selectivity for ROCK2) | – |
| C(#Cc1ccnc(-c2ccnc(NCC3CCCN3)n2)n1)c1ccc2[nH]ncc2c1 (stereo not drawn) [Ex. 5, 4-((1H-Indazol-5-yl)ethynyl)-N-(pyrrolidin-2-ylmethyl)-[2,4′-bipyrimidin]-2′-amine] | 0.1 to 0.99 | 0.01 to 0.099 | * (<50-fold selectivity for ROCK2) | – |
| O=C(CNc1nccc(-c2nccc(C#Cc3ccc4[nH]nc(F)c4c3)n2)n1)N1CCOCC1 [Ex. 77, 2-((4-((3-Fluoro-1H-indazol-5-yl)ethynyl)-[2,4′-bipyrimidin]-2′-yl)amino)-1-morpholinoethanone] | 10 to 100 | 0.01 to 0.099 | *** (151 to 500-fold selectivity for ROCK2) | – |
| CC1(O)CN(C(=O)CNc2nccc(-c3nccc(C#Cc4ccc5[nH]ncc5c4)n3)n2)C1 [Ex. 84, 2-((4-((1H-Indazol-5-yl)ethynyl)-[2,4′-bipyrimidin]-2′-yl)amino)-1-(3-hydroxy-3-methylazetidin-1-yl)ethanone] | 1 to 9.9 | 0.01 to 0.099 | * (<50-fold selectivity for ROCK2) | – |
| Cc1ccnc(F)c1CNc1nccc(-c2nccc(C#Cc3ccc4[nH]ncc4c3)n2)n1 [Ex. 70, 4-((1H-Indazol-5-yl)ethynyl)-N-((2-fluoro-4-methylpyridin-3-yl)methyl)-[2,4′-bipyrimidin]-2′-amine] | 10 to 100 | 0.01 to 0.099 | **** (>500-fold selectivity for ROCK2) | – |
| C(#Cc1ccnc(-c2ccnc(NCc3ncc[nH]3)n2)n1)c1ccc2[nH]ncc2c1 [Ex. 23, N-((1H-Imidazol-2-yl)methyl)-4-((1H-indazol-5-yl)ethynyl)-[2,4′-bipyrimidin]-2′-amine] | 1 to 9.9 | 0.01 to 0.099 | ** (50 to 150-fold selectivity for ROCK2) | – |
| O=C(CNc1nccc(-c2nccc(C#Cc3ccc4[nH]ncc4c3)n2)n1)N1CCOCC1 [Ex. 41, 2-((4-((1H-Indazol-5-yl)ethynyl)-[2,4′-bipyrimidin]-2′-yl)amino)-1-morpholinoethanone] | 1 to 9.9 | < 0.01 | *** (151 to 500-fold selectivity for ROCK2) | – |
| Cc1n[nH]c2ccc(C#Cc3ccnc(-c4ccnc(NCc5ccc(F)cn5)n4)n3)cc12 [Ex. 71, N-((5-Fluoropyridin-2-yl)methyl)-4-((3-methyl-1H-indazol-5-yl)ethynyl)-[2,4′-bipyrimidin]-2′-amine] | 0.1 to 0.99 | 0.1 to 0.99 | * (<50-fold selectivity for ROCK2) | – |
| CC1(CNc2nccc(-c3nccc(C#Cc4ccc5[nH]ncc5c4)n3)n2)CCCO1 (stereo not drawn) [Ex. 53, 4-((1H-Indazol-5-yl)ethynyl)-N-((2-methyltetrahydrofuran-2-yl)methyl)-[2,4′-bipyrimidin]-2′-amine] | 1 to 9.9 | 0.01 to 0.099 | ** (50 to 150-fold selectivity for ROCK2) | – |
| O=S1(=O)CC[C@H](Nc2nccc(-c3nccc(C#Cc4ccc5[nH]ncc5c4)n3)n2)C1 [Ex. 83, (S)-3-((4-((1H-Indazol-5-yl)ethynyl)-[2,4′-bipyrimidin]-2′-yl)amino)tetrahydrothiophene 1,1-dioxide] | 0.1 to 0.99 | < 0.01 | *** (151 to 500-fold selectivity for ROCK2) | – |
| C[C@H](O)CNc1nccc(-c2nccc(C#Cc3ccc4[nH]ncc4c3)n2)n1 [Ex. 80, (S)-1-((4-((1H-Indazol-5-yl)ethynyl)-[2,4′-bipyrimidin]-2′-yl)amino)propan-2-ol] | 1 to 9.9 | – | ** (50 to 150-fold selectivity for ROCK2) | 0.1 to 0.99 |
| Clc1ccc(CNc2nccc(-c3nccc(C#Cc4ccc5[nH]ncc5c4)n3)n2)nc1 [Ex. 16, 4-((1H-Indazol-5-yl)ethynyl)-N-((5-chloropyridin-2-yl)methyl)-[2,4′-bipyrimidin]-2′-amine] | 0.1 to 0.99 | < 0.01 | * (<50-fold selectivity for ROCK2) | – |
| Fc1ccc(CCNc2nccc(-c3nccc(C#Cc4ccc5[nH]ncc5c4)n3)n2)nc1 [Ex. 39, 4-((1H-Indazol-5-yl)ethynyl)-N-(2-(5-fluoropyridin-2-yl)ethyl)-[2,4′-bipyrimidin]-2′-amine] | 1 to 9.9 | 0.01 to 0.099 | ** (50 to 150-fold selectivity for ROCK2) | – |
| Fc1cccc(CNc2nccc(-c3nccc(C#Cc4ccc5[nH]ncc5c4)n3)n2)n1 [Ex. 32, 4-((1H-Indazol-5-yl)ethynyl)-N-((6-fluoropyridin-2-yl)methyl)-[2,4′-bipyrimidin]-2′-amine] | 1 to 9.9 | 0.01 to 0.099 | ** (50 to 150-fold selectivity for ROCK2) | – |
| Cc1ccc(CNc2nccc(-c3nccc(C#Cc4ccc5[nH]ncc5c4)n3)n2)nc1 [Ex. 24, 4-((1H-Indazol-5-yl)ethynyl)-N-((5-methylpyridin-2-yl)methyl)-[2,4′-bipyrimidin]-2′-amine] | 0.1 to 0.99 | < 0.01 | ** (50 to 150-fold selectivity for ROCK2) | – |
| CS(=O)(=O)CCNc1nccc(-c2nccc(C#Cc3ccc4[nH]ncc4c3)n2)n1 [Ex. 56, 4-((1H-Indazol-5-yl)ethynyl)-N-(2-(methylsulfonyl)ethyl)-[2,4′-bipyrimidin]-2′-amine] | 1 to 9.9 | < 0.01 | **** (>500-fold selectivity for ROCK2) | – |
| Fc1cncc(CNc2nccc(-c3nccc(C#Cc4ccc5[nH]ncc5c4)n3)n2)c1 [Ex. 29, 4-((1H-Indazol-5-yl)ethynyl)-N-((5-fluoropyridin-3-yl)methyl)-[2,4′-bipyrimidin]-2′-amine] | 1 to 9.9 | 0.1 to 0.99 | * (<50-fold selectivity for ROCK2) | – |
| C(#Cc1ccnc(-c2ccnc(N[C@H]3CCOC3)n2)n1)c1ccc2[nH]ncc2c1 [Ex. 62, (S)-4-((1H-Indazol-5-yl)ethynyl)-N-(tetrahydrofuran-3-yl)-[2,4′-bipyrimidin]-2′-amine] | 1 to 9.9 | < 0.01 | *** (151 to 500-fold selectivity for ROCK2) | – |
| C[C@@H](O)CNc1nccc(-c2nccc(C#Cc3ccc4[nH]ncc4c3)n2)n1 [Ex. 79, (R)-1-((4-((1H-Indazol-5-yl)ethynyl)-[2,4′-bipyrimidin]-2′-yl)amino)propan-2-ol] | 1 to 9.9 | – | ** (50 to 150-fold selectivity for ROCK2) | 0.01 to 0.099 |
